# Assay results as given in patent publication US6479474B2, “Dietary calcium as a supplement to vitamin D compound treatment of multiple sclerosis” (Wisconsin Alumni Research Foundation, priority 1999, dated 2002).
# Legend:
# [1] = Body weight at end of the 50 d experiment; format: in vivo; conditions: male mice, end of 50 d experiment, mean ± SD
# Excerpt: (§1) Animals and Diets. The B10.PL mice were produced in our colony using breeding pairs obtained from Jackson Laboratories (Bar Harbor, Me.). During breeding, the mice were fed Purina diet 5008 Formilab (Richmond, Ind.), containing 100 IU/g of cholecalciferol (vitamin D3). Mice were used for experiments at 6-8 wk of age at which time the females were 18-22 g and the males were 22-26 g. For experiments, all of the mice were fed synthetic diets (Yang, et al., 1993; Smith, et al., 1987) with the modifications described below. For all experiments each mouse was fed 4 g of the experimental diet (completely eaten) and the diets were replaced every 2-3 days for the duration of each experiment. […] Although the experimental diet was devoid of vitamin D, the mice were exposed to normal light and, therefore, were not vitamin D deficient. EAE was induced in all mice one week after the experimental diets were started. For mice with severe symptoms of EAE, food was placed in small dishes on the bottom of the cage. At the end of the experiments, mice were weighed, killed, and bled.
# LN cells = test: Flow cytometry of LN cell populations (Thy-1, CD4, CD8); format: in vivo, mice; conditions: regardless of dietary calcium or 1,25-(OH)2D3 treatment
# Protocol: (§2) Lymphocytes. Axillary, brachial and inguinal lymph nodes (LN) from 6 mice were collected and pooled from control and 1,25-(OH)2D3 treated mice on d 21 post-immunization. Each experiment was repeated 3 times in its entirety. These LNs were chosen because they drained the site of immunization. Collected LN were disrupted manually using a 23 g needle and a pair of forceps. Total cell numbers in the LN were determined by counting the number of lymphocytes from control- and 1,25-(OH)2D3 treated mice and dividing by the number of mice in the group. Flow cytometry of fluorescent-labeled cell populations (Thy-1, class II, CD4 and CD8) were done on LN cells from control- and 1,25-(OH)2D3-treated mice using standard protocols and exactly as described (Smith, et al., 1987). For cytokine PCR analysis, LN cells were saved for total cellular RNA isolation.
# [2] = tested on: lymphocytes in the draining LN; test: Total cell numbers in the draining lymph nodes of mice with EAE; format: in vivo; conditions: male mice with EAE, 100 ng daily, d 21 post-immunization
# Protocol: as §2
# IFN-γ = conditions: in vivo treatments, literature (Cantorna 1998b); cited from earlier work
# G3PDH mRNA = test: G3PDH transcript analysis in LN by quantitative competitive PCR; format: in vivo; conditions: LN of male mice with EAE, 100 ng daily
# Protocol: (§3) Transcript analysis by quantitative competitive PCR. Cells for mRNA analysis were dissolved in acid guanidinium thiocyanate, and total RNA was isolated by the phenol chloroform extraction method (Chomczynski and Sacchi, 1987). Total cellular RNA was reverse-transcribed using oligo dT primers according to the manufacturer's protocols (Promega) and quantitated by competitive PCR. Primers and mimic DNA specific for glyceraldehyde-3-phosphate dehydrogenase (G3PDH), IL-4 and TGF-β1 were obtained from Clontech Laboratories, Inc. (Palo Alto, Calif.) (Siebert and Larrick, 1992; Siebert and Larrick, 1993). Competitive cDNA mimics which included the G3PDH, IL-4 and TGF-β1 primer sequences adjoining a neutral DNA segment, were serially diluted and added to test cDNA aliquots (Siebert and Larrick, 1992; Siebert and Larrick, 1993). The authentic product to mimic bp sizes were 983/600 for G3PDH, 306/544 for IL-4, and 525/390 for TGF-β1. The mixture was amplified under predetermined optimal conditions and the products were resolved by 1.5% agarose gel electrophoresis and ethidium bromide stained. […] The mimic DNA dilution that yielded a band with a fluorescence intensity that matched the cytokine band was used to calculate cytokine cDNA copy number. The G3PDH transcript quantitation served as a control for reverse transcription efficiency. […]
# [3] = Serum calcium by atomic absorption spectrometry; format: in vivo, mice; conditions: high dietary calcium, at EAE-preventing doses (6 ng/d females, 100 ng/d males)
# Protocol: Serum calcium and 1,25-(OH)2D3 analysis. After 50 days the mice were killed, blood was collected by heart puncture and serum was collected following clot formation. Serum calcium concentrations were determined using a Perkin Elmer atomic absorption spectrometer exactly as described (Mohamed, et al., 1995). 1,25-(OH)2D3 analysis was done exactly as described (Arbour, et al., 1996).
# TNF-α = conditions: in vivo treatments, literature (Cantorna 1998b); cited from earlier work
# TGF-β1 mRNA [4] = conditions: in vivo treatments, literature (Cantorna 1998b); cited from earlier work
# IL-4 mRNA [5] = conditions: in vivo treatments, literature (Cantorna 1998b); cited from earlier work
# TGF-β1 mRNA [6] = test: TGF-β1 transcript analysis in LN by quantitative competitive PCR; format: in vivo; conditions: male mice with EAE, 100 ng daily, regardless of dietary calcium and number of cells in the LN
# Protocol: as §3
# IL-4 mRNA [7] = test: IL-4 transcript analysis in LN by quantitative competitive PCR; format: in vivo; conditions: male mice with EAE, 100 ng daily
# Protocol: as §3
# [8] = tested on: experimental autoimmune encephalomyelitis (EAE) in B10.PL mice; test: EAE induction in B10.PL mice fed 1,25-(OH)2D3 and various dietary calcium: EAE incidence and prevention; format: in vivo; conditions: for prevention of EAE: 20 mg calcium/100 g diet (low); for incidence of EAE: 20 mg calcium/100 g diet, lower doses that do not raise serum calcium; for times more 1,25-(OH)2D3 needed to prevent EAE in males than females: males vs females
# Excerpt: as §1
# In the first experimental design, male and female mice were fed diets which contained 1 g calcium/100 g diet and EAE was induced. In a second series of experiments groups of 8-12 mice were fed the experimental diet (control treatment) without vitamin D or the experimental diet plus various concentrations of 1,25-(OH)2D3 as indicated. Females were fed 1,25-(OH)2D3 ranging from 0 to 200 ng/d and the males were fed 0 to 800 ng/d. The experimental diet contained one of 3 calcium concentrations; 20 mg (low), 470 mg (medium) or 1 g (high) calcium/100 g diet as indicated. The final experimental design used only male which were fed the control diet or the same diet containing 100 ng 1,25-(OH)2D3/daily. These mice were fed diets, which contained low, medium, or high calcium as indicated. […] All of the procedures described were reviewed and approved by the University of Wisconsin-Madison Research Animal Resources Center Committee Review Board on Sep. 9, 1994 and the protocol number is A-07-3000-A00755-4-08-94.
# EAE disease induction. Myelin basic protein (MBP) was isolated from guinea pig spinal cords (Cantorna, et al., 1996). MBP was lyophilized and stored at −20° C. For immunizations, MBP was dissolved in 0.1 mol/L acetic acid at a concentration of 8 g/L (Cantorna, et al., 1996). Ether anesthetized mice were immunized subcutaneously with 0.1 ml of MBP ([…]) emulsified in an equal volume of Complete Freund's Adjuvant (CFA, Difco Laboratories, Detroit, Mich.) containing Mycobacterium tuberculosis H37 Ra. In addition, on the day of immunization and two days later mice were injected i.p. with 200 ng of pertussis toxin (LIST Biological Laboratories, Campbell, Calif.) suspended in sterile saline. […] Male mice were killed on d 21 post-immunization to measure various immune responses. The EAE scoring system was: 0=normal; 1=limp tail; 2=paraparesis with a clumsy gait; 3=hind limb paralysis; 4=hind and fore limb paralysis; 5=moribund.
# experimental arthritis = conditions: literature (Cantorna 1998a); cited from earlier work
# transplant rejection = conditions: literature (Bouillon 1995; Hullett 1998); cited from earlier work
# [9] = tested on: experimental autoimmune encephalomyelitis (EAE) in B10.PL mice; conditions: literature (Cantorna 1996; Lemire and Archer 1991); cited from earlier work
# [10] = tested on: lymphocytes in the draining LN; conditions: in vivo treatments, literature (Cantorna 1998b); cited from earlier work
structure (smiles),measurement,setting,value
"C=C1/C(=C\C=C2/CCC[C@]3(C)[C@@H]([C@H](C)CCCC(C)(C)O)CC[C@@H]23)C[C@@H](O)C[C@@H]1O [1,25-(OH)2D3, 1α,25-dihydroxyvitamin D3]",Weight,"[1]; dietary calcium 20 mg/100 g, high dose 800 ng/day",13 ± 3 g
same,Weight,"[1]; dietary calcium 20 mg/100 g, intermediate dose 40-500 ng/d",27 ± 2 g
same,Weight,"[1]; dietary calcium 470 mg/100 g, high dose 400 ng/day",17 ± 3 g
same,Weight,"[1]; dietary calcium 470 mg/100 g, intermediate dose 50-200 ng/d",23 ± 2 g
same,Weight,"[1]; dietary calcium 1 g/100 g, high dose 100-400 ng/day",15 ± 1 g
same,Weight,"[1]; dietary calcium 1 g/100 g, intermediate dose 10-50 ng/d",25 ± 2 g
same,CD4+ cells,LN cells,40-44 % of the LN
same,CD8+ cells,LN cells,18-21 % of the LN
same,Thy-1 positive cells,LN cells,52-57 % of the LN
same,total number of cells in the LN,[2]; low calcium diets,the same as controls
same,total number of cells in the LN,[2]; with addition of calcium to the diet,decreased dramatically
same,IFN-γ expression,IFN-γ,no effect
same,G3PDH mRNA expression,G3PDH mRNA,no effect
same,serum calcium,[3],elevated
same,TNF-α expression,TNF-α,no effect
same,expression of TGF-β1,TGF-β1 mRNA [4],net increase
same,expression of IL-4,IL-4 mRNA [5],net increase
same,TGF-β1 mRNA expression in LN,TGF-β1 mRNA [6],high levels of TGF-β1
same,IL4 production (mRNA in LN),IL-4 mRNA [7]; low calcium diets,not different from controls
same,amount of IL-4 produced (mRNA in LN),IL-4 mRNA [7]; medium to high calcium diets,increased as the calcium in the diet increased
same,reduction of the incidence of EAE,[8]; calcium removed from the diet,50%
same,effectiveness in preventing EAE,"[8]; diet containing high calcium, appropriate doses",100%
same,prevention of EAE,"[8]; females, at 200 ng/d",never completely prevented
same,incidence of EAE,[8]; females,45%
same,dose at which EAE was completely prevented,"[8]; females, 470 mg calcium/100 g diet (medium)",200 ng/day
same,dose at which EAE was completely prevented,"[8]; females, 1 g calcium/100 g diet (high)",6 ng/day
same,drop in EAE incidence compared to mice not treated,"[8]; low calcium diets, males and females",40-45%
same,"times more 1,25-(OH)2D3 needed to prevent EAE in males than females",[8]; high calcium intakes,17 times
same,"times more 1,25-(OH)2D3 needed to prevent EAE in males than females",[8]; overall,at least 4 times
same,prevention of EAE,"[8]; males, at 800 ng/d",never completely prevented
same,incidence of EAE,[8]; males,30%
same,dose at which EAE was completely prevented,"[8]; males, 470 mg calcium/100 g diet (medium)",400 ng/day
same,dose at which EAE was completely prevented,"[8]; males, 1 g calcium/100 g diet (high)",100 ng/day
same,"overall symptoms of EAE (day of onset, paralysis scores)","[8]; treated mice, as the incidence dropped (data not shown)",decreased
same,development of experimental arthritis,experimental arthritis,prevent
same,transplant rejection,transplant rejection,markedly inhibit transplant rejection
same,development of EAE,[9],prevent the development of EAE
same,total number of lymphocytes,[10],net loss
